Reference: ChEMBL document CHEMBL1146660 (Bioorg Med Chem Lett, 2004)

Tests used:
[1] = biological target: T1, M-phase inducer phosphatase 2 (Homo sapiens, UniProt P30305); assay: Concentration required to inhibit human Cell division cycle 25B activity
T1 sequence (P30305 whole entry): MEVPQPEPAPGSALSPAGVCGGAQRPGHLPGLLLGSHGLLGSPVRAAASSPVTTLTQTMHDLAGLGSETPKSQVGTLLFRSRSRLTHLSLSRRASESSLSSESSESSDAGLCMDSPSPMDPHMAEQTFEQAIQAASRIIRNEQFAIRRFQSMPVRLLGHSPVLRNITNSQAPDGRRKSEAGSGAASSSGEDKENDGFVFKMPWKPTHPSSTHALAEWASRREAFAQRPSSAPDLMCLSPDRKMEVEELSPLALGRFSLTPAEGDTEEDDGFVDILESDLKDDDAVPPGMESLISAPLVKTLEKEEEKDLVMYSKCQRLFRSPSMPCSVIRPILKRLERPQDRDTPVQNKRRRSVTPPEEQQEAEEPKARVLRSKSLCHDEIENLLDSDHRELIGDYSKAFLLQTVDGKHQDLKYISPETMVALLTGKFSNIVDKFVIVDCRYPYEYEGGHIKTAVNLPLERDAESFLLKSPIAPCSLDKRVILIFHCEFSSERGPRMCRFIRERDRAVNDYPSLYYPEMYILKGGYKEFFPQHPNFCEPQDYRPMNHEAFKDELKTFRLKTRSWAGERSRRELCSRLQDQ

[2] = biological target: T2, M-phase inducer phosphatase 1 (Homo sapiens, UniProt P30304); assay: Concentration required to inhibit human Cell division cycle 25A activity
T2 sequence (P30304 whole entry): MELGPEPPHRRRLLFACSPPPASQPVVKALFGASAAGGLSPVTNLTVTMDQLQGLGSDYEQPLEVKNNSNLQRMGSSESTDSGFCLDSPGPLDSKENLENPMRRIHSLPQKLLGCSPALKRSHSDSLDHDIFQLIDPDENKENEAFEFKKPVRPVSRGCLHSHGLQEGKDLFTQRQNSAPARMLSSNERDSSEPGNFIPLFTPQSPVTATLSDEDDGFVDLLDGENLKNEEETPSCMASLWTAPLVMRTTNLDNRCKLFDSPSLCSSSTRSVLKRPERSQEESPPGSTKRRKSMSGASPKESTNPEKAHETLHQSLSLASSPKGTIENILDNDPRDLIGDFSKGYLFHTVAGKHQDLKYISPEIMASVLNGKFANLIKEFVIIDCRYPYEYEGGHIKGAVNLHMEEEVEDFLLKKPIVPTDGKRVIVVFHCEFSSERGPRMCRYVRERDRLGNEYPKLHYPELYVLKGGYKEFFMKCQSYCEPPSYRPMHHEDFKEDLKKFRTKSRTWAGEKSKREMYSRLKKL

[3] = biological target: T2, M-phase inducer phosphatase 1; assay: Concentration required to inhibit human Cell division cycle 25A activity; Value ranges from […] to […]

Q: `CC(C)CCC[C@@H](C)[C@H]1CCC2/C(=C/C(=O)O)CCC[C@@]21C` (stereo partly drawn) was tested. Which IC50 [1] did it give?
A: The IC50 was 8 µM.

Q: And the IC50 [2]?
A: The IC50 was 5.5 µM.

Q: Which IC50 [3] does the source give for `C=C1CC[C@H](O)C/C1=C/C=C1\CCC[C@@]2(C)C1CC[C@@H]2[C@H](C)CCCC(C)C` (stereo partly drawn) here?
A: Its IC50 is 0.89 µM.
